Laboratory results: article PMC9531438, “Preclinical development of carrier-free prodrug nanoparticles for enhanced antitumor therapeutic potential with less toxicity” (Journal of Nanobiotechnology, 2022)
Like-named read-outs stand apart in the source and are kept apart here. Blank lines part the entries; values can stand above or below the compound they belong to. Where a SMILES comes first, the peptide text is derived from it. The star is where a group is joined. Doxorubicin(3'-N) = COc1cccc2c1C(=O)c1c(O)c3c(c(O)c1C2=O)C[C@@](O)(C(=O)CO)C[C@@H]3O[C@H]1C[C@H](N*)[C@H](O)[C@H](C)O1

Tests used:
KPC960 cells = assay: CCK-8 cytotoxicity; format: cell-based, human; details: 48 h treatment
Experimental: (§1) The cytotoxicity of F68-FDOX was assessed via a cell counting kit-8 (CCK-8) assays. First, 1 × 10^5 HT29, MDA-MB231, KPC960 or H9C2 cells were seeded into 96-well cell culture plates. […] Finally, cell viability was measured by a microplate reader (VERSAmaxTM; Molecular Devices Corp., USA) with 450 nm of wavelength.

H9C2 cells = assay: CCK-8 cytotoxicity; format: cell-based, rat; details: 48 h treatment, normal cardiomyocytes
Experimental: as §1

[1] = Pharmacokinetics after intravenous injection; format: in vivo, mice
Experimental: (§2) The 6-week male BALB/c and BALB/c nu/nu mice were purchased from NaraBio (Gyeonggi-do, Republic of Korea). Mice were bred under pathogen-free conditions in the Korea Institute of Science and Technology (KIST). All experiments with animals were performed in compliance with the relevant laws and institutional guidelines of Institutional Animal Care and Use Committee (IACUC; approved number of 2020-123) in Korea Institute of Science and Technology (KIST). […] After treatment, blood samples were collected from mice by cardiac puncture after deep anesthesia at pre-determined times, followed by analysis with HPLC with fluorescence detector. The PK parameters including area under the curves (AUC), clearance (CL), volume of distribution (Vd) and half-life (t1/2) were calculated using a WinNonlin software. […] The fluorescence intensities in the tumor regions were quantified using a Living Image software (PerkinElmer, Waltham, MA, USA). The ex vivo NIRF imaging of collected major organs after 9 h of injection was also performed using IVIS Lumina Series III system. […] For this analysis, each tissue was cut into 8-μm sections using rotary microtome and analyzed via confocal laser scanning microscope (CLSM) equipped with 405 diode (405 nm) and HeNe-Red (633 nm) lasers.

HT29 tumor-bearing mice [2] = assay: Pharmacodynamics, histological analysis of organs and tumor tissues (CLSM); format: in vivo; details: i.v. 4 mg/kg based on DOX, 9 h after injection
Experimental: as §2

HT29 tumor = assay: Antitumor activity, colon tumor model; format: in vivo
Experimental: (§3) The antitumor activity was evaluated in colon, breast and pancreatic cancer models, which were prepared by subcutaneous injection with 1 × 10^7 HT29, MDA-MB231 or KPC960 cells, respectively. […] The mice were treated once every three days, and tumor volumes were calculated as the largest diameter × smallest diameter^2 × 0.53, every 2 days. The mice with a tumor size of 2000 mm^3 or higher were counted as dead. To analyze the antitumor activity in a single cell level, the tumor tissues were collected on day 9, and single cell were isolated from the tumor tissues using a Tumor Dissociation Kit. After cell counting, single cells were stained with Annexin V for 1 h in room temperature and analyzed via flow cytometer.

[3] = tested on: colon (HT29) tumor tissues; assay: Annexin V staining of single tumor cells (flow cytometry); format: in vivo, mice; details: day 9 after treatment, mean
Experimental: as §3

BALB/c mice [4] = assay: Toxicity study after multi-dosage; format: in vivo
Experimental: (§4) The safety of F68-FDOX treatment was assessed by histological and hematological analyses. Briefly, DOX (4 mg/kg), FRRG-DOX (4 mg/kg based on DOX contents) or F68-FDOX (4 mg/kg based on DOX contents) were intravenously injected into BALB/c mice. On day 9 after treatments, major organs were collected from mice, and structural abnormalities and apoptosis in organ tissues were assessed by staining with H&E or TUNEL, respectively. In case of hematological analyses, blood samples were collected from mice on day 9. For the complete blood count (CBC) analyses, each blood sample was mixed with EDTA, and a portion of blood sample was centrifuged at 2100 rpm for 20 min to obtain blood plasma. The following factors in blood samples were measured; albumin/globulin ratio (A/G), troponin-I, albumin (Alb), total protein (TP), alanine aminotransferase (ALT), total cholesterol (T-Chol), blood urea nitrogen (BUN), alkaline phosphatase (ALP), red blood cell (RBC), white blood cell (WBC), mean corpuscular hemoglobin (MCH), mean corpuscular volume (MCV), hematocrit (HCT), hemoglobin (HGB) and platelet (PLT). To assess the safety of F68-FDOX treatment after multiple-dosage, DOX (4 mg/kg), FRRG-DOX (4 mg/kg based on DOX contents) or F68-FDOX (4 mg/kg based on DOX contents) were injected into mice once every three days. Then, histological and hematological analyses were performed as described above.

mice = details: 5 mg/kg free DOX two times (Total 10 mg/kg); ref [42]; cited from earlier work
Experimental: […] […] Even though same dose of equal drugs was administered into the mice, the outcomes can be varied according to the not only the number and intervals of the administration, but also different reactivity by species, feeding environment and age of the ...

BALB/c mice [5] = assay: Toxicity study after single-dosage
Experimental: as §4

[6] = format: in vitro ADME, mouse
Description: The carrier-free doxorubicin (DOX) prodrug nanoparticles were designed as an alternative formulation to overcome several problems of conventional nano-sized drug delivery system in the terms of technical- and industrial-aspects. […] This absolutely simplified one-step synthesis protocol allowed 100 g batch of preparation as described in “Methods” section. […] In addition, their precise and concise structure allow easy quality control (QC) after synthesis; thus, we could verify the successful preparation of FRRG-DOX by confirming chemical structure, exact mass and purity via ^1H NMR, MALDI-TOF (calculated mass: 1102.17 Da, measured mass: 1102.595 m/z) and HPLC (99%), respectively (Additional file 1: Fig. S2). Importantly, FRRG-DOX molecules self-assembled into prodrug nanoparticles by its intermolecular π-π stacking hydrophobic interactions without any additional carrier materials, resulting in high drug loading (> 50%). […] This was clearly supported by MALDI-TOF measurement, wherein the molecular weights of G-DOX (calculated mass: 600.58 Da, measured mass: 656.4 m/z [M + Li] and 657.4 m/z [M + Li + H]) were confirmed at the newly appeared peak (13 min) in the HPLC spectrum after incubation of F68-FDOX with cathepsin B (Additional file 1: Fig. S6). […]

[7] = format: physicochemical
Experimental: Finally, we developed F68-FDOX as a lyophilized powder form and evaluated the long-term storage stability of lyophilized F68-FDOX powder stored for 3, 6, 12 months in the low (− 4 °C), room (37 °C) or accelerated (60 °C) condition; for these studies, size distribution, chemical structure and purity were analyzed after reconstitution of lyophilized powder stored at each condition (Additional file 1: Fig. S7–S9). […] Taken together, the manufacturing operation for mass production of F68-FDOX was optimized for preclinical development, and their physicochemical characterization, such as size distribution, particle stability, target enzyme-specificity, and even the long-term storage stability was successfully evaluated in vitro.
To prepare carrier-free prodrug nanoparticles, the cancer-specific prodrug was simply synthesized by conjugating cathepsin B-specific cleavable tetrapeptide (Phe-Arg-Arg-Gly; FRRG) to DOX via one-step reaction. […] The FRRG-DOX was purified using Sep-Pak C18 column chromatography and the resulting filtrate was analyzed via RP-HPLC (Agilent 1200 Series HPLC System). […] The long-term storage stability of FRRG-DOX power was assessed after storage of 3, 6, 12 months in the low (− 4 °C), room (37 °C) or accelerated (60 °C) condition, followed by analysis of size, chemical structure and purity as described above. […]

HT29 tumor-bearing mice [8] = details: mouse, in vivo, iv, 4 mg/kg
Experimental: as §2

BALB/c mice [9] = details: mouse, in vivo, iv, 10 mg/kg
Experimental: as §4

[10] = mice, i.v., 4 mg/kg based on DOX contents, WinNonlin
[11] = treatment five times with 3 days-intervals
[12] = BALB/c mice, i.v. 10 mg/kg based on DOX, single dose

Compound: COc1cccc2c1C(=O)c1c(O)c3c(c(O)c1C2=O)C[C@@](O)(C(=O)CO)C[C@@H]3O[C@H]1C[C@H](N)[C@H](O)[C@H](C)O1 [DOX, doxorubicin]
IC50 (KPC960 cells): 7.32 µM
IC50 (H9C2 cells): 13.8 µM
CL [1, 10]: 3.02 ± 0.638 mL/min/kg
Vd [1, 10]: 0.304 ± 0.0976 L/kg
half-life (t1/2) [1, 10]: 1.33 ± 0.23 h
AUClast ([1]; mice, i.v., 4 mg/kg based on DOX contents, blood, HPLC with fluorescence detector, WinNonlin): 22.18 ± 4.52 µg·h/mL
distribution in major organs and tumor tissues (histology) (HT29 tumor-bearing mice [2]): non-specifically distributed in all the major organs and low tumor accumulation
colon tumor volume on day 9 after treatment (HT29 tumor; HT29 s.c. tumor, i.v. 4 mg/kg based on DOX once every three days): 478.75 ± 49.87 mm^3
time within which all mice were dead (tumor model) (HT29 tumor; HT29 tumor-bearing mice, i.v. 4 mg/kg once every three days): ≤ 9 days
percentage of apoptotic (Annexin V-positive) tumor cells [3]: 17.7 ± 1.51%
histology of liver, spleen and heart tissues, multi-dosage (BALB/c mice [4]; day 7, H&E): severe tissue damages
hematological parameters, multi-dosage (BALB/c mice [4]; day 7, treatment with 3 days-intervals): remarkably got out from the normal range
body weight change, multi-dosage (BALB/c mice [4]; [11]): severe body weight loss
time within which all mice were dead, multi-dosage (BALB/c mice [4]; [11]): ≤ 7 days
time within which all mice were dead (mice): within two weeks
body weight change, single-dosage (BALB/c mice [5]; [12]): gradually reduced
time within which all mice were dead, single-dosage (BALB/c mice [5]; [12]): ≤ 9 days
complete blood count (CBC) analyses, single-dosage (BALB/c mice [5]; day 9, i.v. 10 mg/kg): severe leukopenia, oligocythemia and thrombocytopenia
serological examination (BUN, ALT, troponin-I), single-dosage (BALB/c mice [5]; day 9, i.v. 10 mg/kg): severe cardiac, renal and hepatic toxicity
major organ tissues stained with H&E or TUNEL, single-dosage (BALB/c mice [5]; day 9, i.v. 10 mg/kg based on DOX): elevated structural abnormalities with apoptosis

Compound: COc1cccc2c1C(=O)c1c(O)c3c(c(O)c1C2=O)C[C@@](O)(C(=O)CO)C[C@@H]3O[C@H]1C[C@H](NC(=O)CNC(=O)[C@H](CCCNC(=N)N)NC(=O)[C@H](CCCNC(=N)N)NC(=O)[C@H](Cc2ccccc2)NC(C)=O)[C@H](O)[C@H](C)O1 [FRRG-DOX] (Ac-FRRG-{Doxorubicin(3'-N)})
AUCinf ([1]; mouse, in vivo, iv, 4 mg/kg): 407.71 ± 85.81 µg·h/mL
AUClast ([1]; mouse, in vivo, iv, 4 mg/kg): 345.99 ± 68.9 µg·h/mL
CL ([1]; mouse, in vivo, iv, 4 mg/kg): 0.1692 ± 0.0405 mL/min/kg
Vd ([1]; mouse, in vivo, iv, 4 mg/kg): 0.0832 ± 0.03185 L/kg
half-life (t1/2) ([1]; mouse, in vivo, iv, 4 mg/kg): 7.96 ± 4.59 h
body weight change, single-dosage (BALB/c mice [5]; [12]): no significant body weight loss

time of high stability without significant changes of size and polydispersity index in mouse serum [6]: ≥ 6 days
stability 24 h after reconstitution (size distribution, chemical structure, purity) [7]: no significant changes
AUCinf ([1]; mouse, in vivo, iv, 4 mg/kg): 1367.44 ± 14.35 µg·h/mL
AUClast ([1]; mouse, in vivo, iv, 4 mg/kg): 1281.17 ± 240 µg·h/mL
CL ([1]; mouse, in vivo, iv, 4 mg/kg): 0.0488 ± 0.0005 mL/min/kg
Vd ([1]; mouse, in vivo, iv, 4 mg/kg): 0.1 ± 0.00269 L/kg
time for which a detectable amount remained in the body ([1]; mouse, in vivo, iv, 4 mg/kg): 96 h
fluorescence intensity in tumor tissues relative to FRRG-DOX (NIRF) (HT29 tumor-bearing mice [8]): 2.42–2.71 fold
all hematological parameters, single-dosage (BALB/c mice [9]): in normal range
Compound: Phe-Arg-Arg-Gly [F68-FDOX]
histology of liver, spleen and heart tissues, multi-dosage (BALB/c mice [4]; mouse, in vivo): without damage to the normal organs
body weight change, single-dosage (BALB/c mice [9]): no significant body weight loss
major organ tissues stained with H&E or TUNEL, single-dosage (BALB/c mice [9]): did not induce noticeable tissue damages
